From patent US7402548B2, “Benzoxazole compounds, process for producing the same and herbicides” (Kyoyu Agri Co., Ltd., priority 2000, dated 2008) come the findings set out here.

SMILES strings stand for the structures.

One data set relates to Cyperus serotinus Rottb. The experiment in a line: Herbicidal test for paddy field. Also: key: 0: normal development; 1: Less damaged; 2: Slightly damaged; 3: Moderately damaged; 4: Severely damaged; 5: All killed. Format: in vivo. Conditions: 500 g/ha, dropwise addition to paddy water at 1.5 leaf stage of barnyard grass; glass house 25° C., 3 weeks; rank 0-5 vs non-treated district. In outline:
(§1)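 Wettable-powder formulations in water with 0.05% surfactant were dripped onto flooded (3 cm) Ube alluvial-soil pots at 500 g/ha, applied at barnyard grass 1.5-leaf stage. Plants were kept in a glasshouse at 25° C. for 3 weeks. Damage was scored 0 (normal) to 5 (all killed) versus untreated plants.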

Data set [1] concerns annual bluegrass. The experiment in a line: Foliar spread test for upland field. Format: in vivo, Poa annua. Details: key: 0 = normal development, 5 = all killed (6 ranks vs. untreated). The settings on record: foliar spray, 500 ppm, 3 weeks, glass house 25° C. In outline:
(§2)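 Plants grown about 2 weeks at 25 °C in volcanic ash soil were sprayed with wettable powder diluted to 500 ppm in water with 0.5% surfactant. After 3 weeks at 25 °C, damage was scored 0 (normal) to 5 (all killed) against untreated plants.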

Another data set relates to Large crabgrass. The experiment in a line: Foliar spread test for upland field. In kind it is in vivo, Digitaria adscendens. Details: key: 0 = normal development, 5 = all killed (6 ranks vs. untreated). The settings on record: foliar spray, 500 ppm, 3 weeks, glass house 25° C. In a few lines:
as §2

In a further data set the test system is green foxtail. The experiment in a line: Foliar spread test for upland field. Conditions: foliar spray, 500 ppm, 3 weeks, glass house 25° C. Details: key: 0 = normal development, 5 = all killed (6 ranks vs. untreated). Format: in vivo, Setaria viridis. In outline:
as §2

The subject of a further data set is velvetleaf. In words: Foliar spread test for upland field. In kind it is in vivo, Abutilon theophrasti. Details: key: 0 = normal development, 5 = all killed (6 ranks vs. untreated). Conditions: foliar spray, 500 ppm, 3 weeks, glass house 25° C. In outline:
as §2

In the next data set the test system is Cassia obtusifolia. The experiment in a line: Foliar spread test for upland field. Format: in vivo. Details: key: 0 = normal development, 5 = all killed. Conditions: foliar spray, 500 ppm, 3 weeks, glass house 25° C. In a few lines:
as §2

The subject of another data set is common lambsquarters. The experiment in a line: Soil treatment test for upland field. Format: in vivo, Chenopodium album. Details: key: 0 = normal development, 5 = all killed. The settings on record: 500 g/ha, 3 weeks, glass house 25° C. In a few lines:
(§3)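 Using a pre-emergence soil application at 500 g/ha, treated pots were held 3 weeks in a glass house averaging 25° C. Injury was graded on a 0–5 scale against non-treated pots; "-" marks entries not investigated.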

A further data set concerns young rice plant. The experiment in a line: Herbicidal test for paddy field. Also: key: 0: normal development; 1: Less damaged; 2: Slightly damaged; 3: Moderately damaged; 4: Severely damaged; 5: All killed. In kind it is in vivo. The settings on record: 500 g/ha, dropwise addition to paddy water at 1.5 leaf stage of barnyard grass; glass house 25° C., 3 weeks; rank 0-5 vs non-treated district. The procedure: Then, the pots were filled with water to a depth of 3 cm. […] These plants were controlled in a glass house at an average temperature of 25° C. for 3 weeks, and then herbicidal effects thereof were investigated. The herbicidal effects are evaluated according to the following 6 ranks as compared with non-treated district. […] Incidentally, “-” in the column means not investigated.

The test system of data set [2] is annual bluegrass. In words: Soil treatment test for upland field. Conditions: 500 g/ha, 3 weeks, glass house 25° C. Details: key: 0 = normal development, 5 = all killed. In kind it is in vivo, Poa annua. In a few lines: as §3
In the next data set the test system is morning glory. In words: Soil treatment test for upland field. Format: in vivo, Ipomoea spps. Details: key: 0 = normal development, 5 = all killed. Conditions: 500 g/ha, 3 weeks, glass house 25° C. In a few lines: as §3
The test system of the next data set is soybean. The experiment in a line: Soil treatment test for upland field. In kind it is in vivo. Details: key: 0 = normal development, 5 = all killed. The settings on record: 500 g/ha, 3 weeks, glass house 25° C. In a few lines: as §3
Another data set has as its system bulrush. The experiment in a line: Herbicidal test for paddy field. Also: key: 0: normal development; 1: Less damaged; 2: Slightly damaged; 3: Moderately damaged; 4: Severely damaged; 5: All killed. Format: in vivo, Scrips juncoides. The settings on record: 500 g/ha, dropwise addition to paddy water at 1.5 leaf stage of barnyard grass; glass house 25° C., 3 weeks; rank 0-5 vs non-treated district. In a few lines: as §1
In the next data set the test system is cotton. The experiment in a line: Soil treatment test for upland field. In kind it is in vivo. The settings on record: 500 g/ha, 3 weeks, glass house 25° C. In a few lines:
as §3
For Effects Sotton in this document: key: 0: normal development; 1: Less damaged; 2: Slightly damaged; 3: Moderately damaged; 4: Severely damaged; 5: All killed.

As to `FC(F)(F)c1cccc(Oc2cccc(-c3nc4cc(Cl)ccc4o3)n2)c1` [I-a-3, 6-(5-chlorobenzoxazol-2-yl)-2-(3-trifluoromethylphenoxy)pyridine], the “Effects Cyperus serotinus Rottb.” value in the data set with Cyperus serotinus Rottb. was 0. For the same compound, the “Effects Annual bluegrass” value with annual bluegrass [1] turned out to be 4; with annual bluegrass [2], 5. In addition, the “Effects Large crabgrass” value with Large crabgrass is 2. Further, in the data set with green foxtail, the “Effects Green foxtail” value worked out at 3. In the data set on velvetleaf, the “Effects Velvetleaf” value came out at 4. The “Effects Sicklepod” value with Cassia obtusifolia came out at 4. The “Effects Common lambsquarters” value in the data set on common lambsquarters worked out at 5. Also, the “Effects Young rice plant” value in the data set with young rice plant was determined as 2. Further, the “Effects Morning glory” value in the data set on morning glory turned out to be 3. Further, the “Effects Soybean” value in the data set on soybean worked out at 3. In the data set on bulrush, the “Effects Bulrush” value amounted to 0.
As for `Fc1ccc2nc(-c3cccc(Oc4cccc(C(F)(F)F)c4)n3)oc2c1` [I-a-6, 6-(6-fluorobenzoxazol-2-yl)-2-(3-trifluoromethylphenoxy)pyridine], the “Effects Cyperus serotinus Rottb.” value in the data set with Cyperus serotinus Rottb. was 2. Also, the “Effects Annual bluegrass” value in the data set with annual bluegrass [1] and in the data set on annual bluegrass [2] was 5 each time. Moreover, in the data set with Large crabgrass, the “Effects Large crabgrass” value was determined as 5. For the same compound, the “Effects Sotton” value in the data set on cotton is reported as 1. For the same compound, in the data set on green foxtail, the “Effects Green foxtail” value is on record as 5. In the data set on velvetleaf, the “Effects Velvetleaf” value came to 5. Besides, in the data set with Cassia obtusifolia, the “Effects Sicklepod” value is recorded as 5. The “Effects Common lambsquarters” value in the data set with common lambsquarters is recorded as 5. Besides, in the data set on young rice plant, the “Effects Young rice plant” value is reported as 3. Besides, the “Effects Morning glory” value in the data set with morning glory is on record as 5.
With `Fc1ccc2nc(-c3cccc(Oc4ccc(F)c(C(F)(F)F)c4)n3)oc2c1` [I-a-7], the “Effects Cyperus serotinus Rottb.” value in the data set with Cyperus serotinus Rottb. is on record as 0. Moreover, the figures for the “Effects Annual bluegrass” value in the data set with annual bluegrass [1] and in the data set on annual bluegrass [2] were 3 and 5, respectively. Moreover, the “Effects Large crabgrass” value in the data set with Large crabgrass is on record as 3. The “Effects Sotton” value with cotton worked out at 0. Also, the “Effects Green foxtail” value in the data set with green foxtail is listed as 3. Moreover, the “Effects Velvetleaf” value in the data set with velvetleaf is reported as 3. The “Effects Sicklepod” value with Cassia obtusifolia amounted to 3. The “Effects Common lambsquarters” value with common lambsquarters is 5. Further, in the data set on morning glory, the “Effects Morning glory” value was determined as 1. Moreover, in the data set with soybean, the “Effects Soybean” value was found to be 2. Besides, the “Effects Bulrush” value in the data set on bulrush is 0.
